Assay results taken from patent publication US5624923A, “Tricyclic diazepine vasopressin antagonists and oxytocin antagonists” (priority 1995, dated 1997).

Columns and labels:
[1] = molecular target: T1, Rat Kidney Medullary V2 Receptors (Rattus norvegicus, UniProt Q00788); test: Binding Assay to Rat Kidney Medullary V2 Receptors; settings: for IC50: rat kidney medulla membranes, read-out: V2 IC50; for inhibition at 10 µM: rat
T1 construct: Medullary tissues from rat kidneys are dissected out; from tissue; host or cells: rat kidney medulla membranes
Outline: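 IC50 derived from competition curves; bound tritium counted by liquid scintillation after filtration. Rat medullary kidney membranes (Tris-HCl pH 7.4, BSA, PMSF) were incubated 120 min to equilibrium with radioligand and test compound (added in 50% DMSO). Nonspecific binding: 1.0 μM unlabeled ligand.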

[2] = tested on: Vasopressin V1; test: Vasopressin V1 Antagonist Activity in Conscious Rats (vasopressin vasopressor response); type: in vivo, rat; settings: 30 mg/kg i.v.
Outline: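 Conscious rats are restrained supine, and under local 2% procaine a PE 10/20 cannula is passed through the ventral caudal tail artery into the lower abdominal aorta. The caudal vein is cannulated for intravenous dosing. Blood pressure is recorded with a Statham P23Db transducer, and vasopressin injections are repeated after compound dosing. Percent antagonism is calculated against the pre-drug vasopressor response taken as 100%.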

[3] = molecular target: T2, oxytocin receptors (Rattus norvegicus, UniProt P70536); test: Oxytocin Receptor Binding; settings: for IC50: 1.0 nM [3H]oxytocin; for inhibition at 10 µM: [3H]oxytocin
T2 construct: The uteri are dissected out, cleaned of fat and connective tissues; from tissue; host or cells: uterus of DES-treated female Sprague-Dawley rats
T2 sequence (P70536 1-388): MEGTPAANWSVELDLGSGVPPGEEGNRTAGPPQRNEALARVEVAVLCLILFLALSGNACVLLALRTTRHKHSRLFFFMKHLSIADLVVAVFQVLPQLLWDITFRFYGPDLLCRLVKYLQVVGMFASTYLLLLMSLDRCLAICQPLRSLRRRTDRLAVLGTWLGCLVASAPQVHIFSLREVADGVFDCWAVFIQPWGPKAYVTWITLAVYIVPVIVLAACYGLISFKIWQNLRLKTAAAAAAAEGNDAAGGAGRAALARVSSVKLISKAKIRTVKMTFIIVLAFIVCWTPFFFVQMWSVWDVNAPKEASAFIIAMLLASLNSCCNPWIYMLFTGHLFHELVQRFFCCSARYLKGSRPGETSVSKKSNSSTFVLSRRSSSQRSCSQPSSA
Outline: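 IC50 is the concentration displacing 50% of 1.0 nM [3H]OT, incubated 60 min at 22 °C in pH 7.4 Tris/MgCl2 buffer plus protease inhibitors, then filtered. Receptor source: uterine membranes from rats given 0.3 mg/kg DES i.m. 18 h earlier. 1.0 uM cold OT defined non-specific binding.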

T1 sequence (Q00788 whole entry): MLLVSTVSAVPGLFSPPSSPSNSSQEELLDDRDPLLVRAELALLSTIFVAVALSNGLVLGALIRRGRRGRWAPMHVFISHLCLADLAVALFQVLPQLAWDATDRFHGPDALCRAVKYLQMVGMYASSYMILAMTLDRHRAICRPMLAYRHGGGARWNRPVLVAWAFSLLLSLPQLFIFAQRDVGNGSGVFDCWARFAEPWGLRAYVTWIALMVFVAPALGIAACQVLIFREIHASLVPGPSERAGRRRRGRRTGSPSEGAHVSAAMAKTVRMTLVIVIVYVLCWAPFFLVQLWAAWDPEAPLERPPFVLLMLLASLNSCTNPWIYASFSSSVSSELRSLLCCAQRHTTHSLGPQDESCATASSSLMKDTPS

Structure (SMILES): COC(=O)c1ccc2n1Cc1ccccc1N(C(=O)c1ccc(NC(=O)c3ccc(Cl)cc3Cl)cc1)C2 [Example 593]
- IC50 [1]: 42 nM
- Max. % Inhibition [2]: 67%
- Time (of max. % inhibition) [2]: 60 min
- IC50 [3]: 1100 nM
- inhibition at 10 µM [3]: 82%

Structure (SMILES): O=C(Nc1ccc(C(=O)N2Cc3ccc(C(=O)C(F)(F)F)n3Cc3ccccc32)cc1)c1ccccc1C(F)(F)F [Example 594]
- inhibition at 10 µM [1]: 23%
- Max. % Inhibition [2]: 36%
- Time (of max. % inhibition) [2]: 180 min
- inhibition at 10 µM [3]: 19%

Structure (SMILES): Cc1ccccc1C(=O)Nc1ccc(C(=O)N2Cc3ccc(C(=O)C(F)(F)F)n3Cc3ccccc32)c(Cl)c1 [Example 595, N-[4-[[3-(Trifluoroacetyl)-5H-pyrrolo[2,1-c][1,4]benzodiazepin-10(11H)-yl]carbonyl]-3-chlorophenyl]-2-methylbenzamide]
- inhibition at 10 µM [1]: 93%
- Max. % Inhibition [2]: 44%
- Time (of max. % inhibition) [2]: 90 min
- inhibition at 10 µM [3]: 49%

Structure (SMILES): O=C(Nc1ccc(C(=O)N2Cc3cccn3Cc3ccccc32)cc1)c1cc(Cl)cc(Cl)c1Cl [Example 599, N-[4-(5H-Pyrrolo[2,1-c][1,4]benzodiazepin-10(11H)-ylcarbonyl)phenyl]-2,3,5-trichlorobenzamide]
- IC50 [1]: 14 nM
- Max. % Inhibition [2]: 86%
- Time (of max. % inhibition) [2]: 90 min
- IC50 [3]: 350 nM
- inhibition at 10 µM [3]: 92%
